Source: patent US20040037904A1, “Antibacterial composition comprising as an active ingredient saponificated vegetable oil” (priority 2000, published 2004)
“Also recorded” adds a separate entry of the source.

Tests used:
[1] = system: Musca domestica (adult); assay: Adult flies in spray-treated Petri dishes, surviving flies counted; format: in vivo; details: 10 adult flies per pre-treated dish; RB 86 6%, Bionim 0.4%, potassium oleate 5% concentration
Protocol: (§1) As RB 86™ needs an emulsifier for dissolving this emulsifier was also tested. All tests were reiterated, making a total of five times for each. Throughout the study, houseflies (Musca domestica) of a laboratory strain (772a) obtained from Statens Skadedyrslaboratorium, Lyngby, Denmark, was used. Standard medium for culturing larvae consisted of baker's yeast, mill: powder, water and wheat bran.
Test vessels were Petri dishes made of glass with a diameter of 9 cm. With the help of a spraying bottle the bottoms of the vessels were treated with each of the compositions a)-f). After transferring 10 adult flies to each of the pre-treated dishes, the dishes were covered with plastic film and the registration started. Observations were performed by counting the surviving flies at the start, after 5 minutes and subsequently every 10th minute up to a total of 60 minutes. Two further observations were made after 1.5 and 2 hours from the start, respectively.

[2] = system: Musca domestica (larvae); assay: Larvae in culture medium with the composition, surviving larvae counted; format: in vivo; details: six days old larvae, 24° C., observed up to 36 hours
Protocol: as §1
Six days old larvae were placed in 1.5 litre plastic vessels (Cerbo™) containing 40 g culture medium and the respective composition a)-f). The vessels were placed in a climate room (24° C., RH %=75%±10%). Observations were performed whereby the number surviving larvae were registrated after 2, 5, 12, 24 and 36 hours.

[3] = system: M. domestica spiracle opening bristles; assay: Effects on flies studied in scanning electron microscope; format: in vivo, Musca domestica; details: adult flies; Bionim 0.4%, potassium oleate 5%, Blidol 0.02%; SEM
Excerpt: A scanning electron microscope (SEM) was used to microscope adult flies treated with:
whereby morphological changes could be detected. These flies were photographed and compared with normal flies.
Morphological changes could be detected on the spiracle opening on the middle part of the body. Bristles (see FIG. 12) surround this breathing hole. […] Apparently these last mentioned effects are present when using the other compositions.

[4] = system: fleas; assay: Flea control on dogs; format: in vivo
Protocol: 15 dogs infested with fleas were treated with oleate. The oleate was sprayed from pump bottles. At the first treatment the dogs were sprayed with oleate in the groins, armpits and head/neck. At the second treatment, twenty-four hours later, the dogs were sprayed only in the armpits and behind the ears.

CCCCCCCC/C=C\CCCCCCCC(=O)[O-].[K+] [Potassium oleate]
time within which all flies were killed [1]: ≤ 5 min | controlling effect on larvae [2]: An effect could however be detected | deformation of bristles around the spiracle opening [3]: The bristles are minimally affected; also recorded: only showed minimal changes | fleas found on dogs ([4]; after the first spray treatment, 15 infested dogs): only one or two fleas were found on some dogs | living fleas found ([4]; forty-eight hours later, after the second treatment): no living flea was found | living fleas found at another check ([4]; four days later): the result was the same
